Laboratory results published in patent US20240139162A1, “Benzophenanthridine Alkaloids and Their Methods of Use” (Chengdu Anticancer Bioscience, LTD., priority 2019, published 2024).
“Also recorded” adds a separate entry of the source.

Key:
3T3 MEF cells = assay: IC50 in 3T3 MEF cells (Table 2); type: cell-based; details: Mus musculus, MEF, 72 h, 3T3 MEF, treatment 72 h; read-out: IC50
Procedure: (§1) Cells were split, plated in appropriate culture media and allowed to adhere. After 18 hours, corynoline and acetylcorynoline were added to a cell line selected from below. At 72 h or 96 h, MTT was added and at 75 h or 99 h, the A570 nm was recorded. The concentration ranged from 0.02 μM to 40 μM.
(§2) The effect of the compounds chelidonine and protopine on cell division was assessed similarly to corynoline and acetylcorynoline above. As described in Example 6 above, as cells enter and become arrested in mitosis, they detach from the plate surface and appear as rounded cells with a smooth surface membrane. RPE-MBC cells (ectopically expressing oncogenes MYC and Bcl2) were treated with DMSO, chelidonine and protopine, and compared against controls Michael's ketone (MK) and taxol.

[1] = tested on: Rat1A cell lines (Rat1A C, Rat1A MYC, Rat1A E2F1, Rat1A E2F3); assay: MTT assay, Rat1A cell lines expressing oncogenes; type: cell-based; details: Rat1A cell lines compared to Rat1A C (FIG. 12)
Procedure: as §1
(§3) The following Rat1A cell lines were used in these studies: Rat1 A C, Rat1A MYC, Rat1A E2F1, and Rat1A E2F3. The cell line was then engineered as control (C), to overexpress the MYC oncogene (Rat1A-MYC), to overexpress the E2F1 oncogene (Rat1A-E2F1), or to overexpress the E2F3 oncogene (Rat1A-E2F3).

RPE-A19 cells = assay: IC50 in RPE-A19 cells (Table 2); type: cell-based, human; details: Homo sapiens, 72 h, RPE-A19, treatment 72 h; read-out: IC50
Procedure: as §1, §2

RPE-MBC cells = assay: Mitotic arrest (cell round-up, phospho-Histone H3) and polyploidy (DAPI) assay; type: cell-based, human
Procedure: For screening for bioactive fractions, cells were cultured in 96-well plates, and exposed to crude extracts, partially purified fractions or pure compounds at the concentrations indicated in the figure legends. Exposure was for 24 or 48 hours before analysis of cells for either an arrest in mitosis using an inverted microscope or for a change in DNA content after 4′,6′-diamidino-2-phenylindole (DAPI) staining by fluorescence microscopy.
Cells were cultured on coverslips in a 6-well plate, fixed with 4% paraformaldehyde and then permeabilized with 0.3% Triton X-100 in PBS. Primary antibody was detected with Texas-Red-conjugated secondary antibodies that were purchased from Jackson ImmunoResearch. After immunostaining, cells were mounted on microscope slides with 4′,6′-diamidino-2-phenylindole (DAPI)-containing Vectashield mounting solution (Vector Laboratories) for detection of fluorescence with an EVOS FL fluorescence microscope (ThermoFisher).
Cellular “round-up” was used as a surrogate marker for mitotic arrest and could easily be assayed using an inverted tissue culture microscope. […] Mitotic arrest was judged by cell round-up observed under an inverted tissue culture microscope 24 hours after exposing cells to the library.
As cells enter and become arrested in mitosis, they detach from the plate surface and appear as rounded cells with smooth surface membrane, distinct from detached cells that are undergoing programmed cell death. Simple visual screening method was used to assay thousands of extracts. […] To identify bioactive components that are able to interfere with mitosis, 3 kg of Corydalis longicalcarata rhizome were recollected and performed bioactivity-guided extraction, isolation, and purification. The air dried and powdered material was extracted with 70% ethanol assisted by exposure to ultrasonic waves.

Rat1A cells = assay: IC50 in Rat1A cells (Table 2); type: cell-based; details: 72 h, Rat1A, treatment 72 h; read-out: IC50
Procedure: as §1, §3, §2

## CC(=O)O[C@H]1Cc2cc3c(cc2[C@H]2N(C)Cc4c(ccc5c4OCO5)[C@@]12C)OCO3 [Acetylcorynoline, (5bR,6S,12bR)-5b,6,7,12b,13,14-Hexahydro-5b,13-dimethyl-[1,3]benzodioxolo[5,6-c]-1,3-dioxolo[4,5-i]phenanthridin-6-ol 6-acetate]
3T3 MEF cells
  IC50: 23 µM
[1]
  change of IC50 after overexpression of oncogenes: all declined when compared to Rat1 A C
RPE-A19 cells
  IC50: 35.2 µM
RPE-MBC cells; 10 μM and 20 μM, 48 hours
  polyploidy compared to DMSO control: polyploidy was induced
RPE-MBC cells; 24 hours after treatment
  mitotic arrest: can arrest mitosis within 24 hours of treatment; also recorded: Nearly all cells entered and arrested in mitosis
RPE-MBC cells; 48 hours after treatment
  polyploidy (DAPI staining): induce polyploidy at 48 hours; also recorded: induced polyploidy; also recorded: Polyploidy was observed; also recorded: demonstrates polyploidy
RPE-MBC cells; FIG. 15
  minimal effective concentration for mitotic arrest and polyploidy relative to corynoline: 2 fold
  mitotic arrest and polyploidy, dependence on concentration: concentration-dependent
RPE-MBC cells; within 48-hour treatment
  persistence of the arrest of cells in mitosis: transient
Rat1A cells
  IC50: 27.4 µM
